Measurements taken from paper PMC12388300, “The Chelating Abilities of Tertiary Amines with N-O-Donors Towards Cu(II) Ions and the Catalytic Properties of the Resulting Complexes” (Molecules, 2025).
Marks after values point to notes of the source that are not given here.

How the values were obtained:
[1] = Cyclic voltammetry of the Cu(II)/Cu(I) couple; type: physicochemical; settings: for ΔE: Epc − Epa; for ΔE / │ia/ic│ / E1/2: PBS pH 7.8; for │ia/ic│: peak current ratio; for E1/2 / Epa / Epc: vs NHE; for E1/2: E1/2=(Epc+Epa)/2; for Epa / Epc: PBS 10 mM, 150 mM NaCl, pH 7.8, 0.25 mM complex
Protocol: To assess this behavior, the corresponding redox potentials were measured by cyclic voltammetry (CV), offering key insights into the electron-transfer properties of the complexes. The metal ion redox potential should ideally lie between the potential for oxidation (−0.16 V vs. NHE) (Equation (1)) and reduction (0.89 V vs. NHE) of superoxide radicals (Equation (2)).(1) O2∙−→O2+e^− (2) O2∙−+e^−+H^+→H2O2
The key electrochemical parameters extracted from the cyclic voltammograms are summarized in Table 3, highlighting a similar redox behavior of the complexes with both ligands. However, the nature of the anion appears to influence the properties of the mononuclear species formed in situ, compared with the isolated complexes.
Cyclic voltammetry experiments were carried out using a BAS Cell C3 EC-epsilon potentiostat equipped with a conventional three-electrode system consisting of a glassy carbon working electrode (3 mm diameter, geometric surface 7 mm^2), a platinum wire counter electrode (CE), and a silver/silver chloride reference electrode (Ag/AgCl, 3 M KCl). Voltammograms were recorded in phosphate-buffered saline (PBS; 10 mM, 150 mM NaCl, pH 7.8) containing 0.25 mM of the complex. The measurements were performed within a potential window from −600 mV to +400 mV, employing various scan rates (50 mV/s, 100 mV/s, 200 mV/s, 400 mV/s, and 800 mV/s).

[2] = SOD activity, indirect cytochrome C (CytC) assay, xanthine/xanthine oxidase; type: biochemical; settings: [CytC] = 10 μM, pH = 7.8; for IC50: CytC assay, [xanthine] = 40 μM, [xanthine oxidase] = 0.0053 U/mL, phosphate buffer 50 mM; for Log (kcat): kcat(O2•−)=kCytC·[CytC]/IC50, kCytC=2.6×10^5 M^−1s^−1
Protocol: To reduce uncertainty about the actual active species involved in the reaction, the catalytic investigations were made with the isolated species. The ability to catalyze superoxide dismutation was assessed using the indirect cytochrome C-based assay originally introduced by McCord and Fridovich. In this kind of test, the presence of a catalyst with SOD activity, acting as a scavenger for O2^•− and generated via a xanthine/xanthine oxidase system, prevents the electron transfer to cytochrome C (Cyt C) to form […].
(§1) Catalytic measurement assays were conducted using a Varian Cary 100 spectrophotometer with a 3 mL quartz cuvette (1 cm path length) for evaluating SOD-like activity. For the assessment of peroxidase-mimicking activity, a Varian Cary 50 instrument and identical cuvettes were utilized. To monitor the CAT-like activity, a 25 mL vial, equipped with a septum for solution injection, was used as a reactor and connected to a pressure transducer.

[3] = CAT-like activity: O2 pressure from hydrogen peroxide dismutation; type: biochemical; parameters: Rmax: unit not given here; settings: [catalyst] = 200 μM, [H2O2] = 20–30 mM in BBS 50 mM, pH = 7.8
Protocol: The studied catalase-like activity of the complexes was evaluated by measuring the pressure resulting from the oxygen produced during the dismutation of the hydrogen peroxide. For this analysis, a borate-based buffer system (BBS 50 mM, pH 7.8) was utilized to avoid the competitive binding of phosphate anions.
as §1, with “transducer. […]” for “transducer.”
To monitor the CAT-like activity, a 25 mL vial was used as a reactor, connected to a pressure transducer and
a septum for the injection.

[4] = UV–Vis monitoring of complex stability during H2O2 dismutation; type: physicochemical; settings: complex 200 μM, H2O2 10 mM in BBS 50 mM pH 7.8
Source text: The reaction progression was monitored by UV–Vis to gather insights into the stability of the complexes during H2O2 dismutation (Figures S45–S48 in Supplementary Materials). Analyzing the spectra recorded for the systems derived from HL1 and HL5, it is possible to observe changes in the absorption bands. In the case of the mononuclear species containing HL1, the alteration in the absorption band takes place over a comparatively extended period, in agreement with the occurrence of the delay period previously noted. The intensity associated with the π→π * electronic transition progressively diminishes, coinciding with a rise in molecular oxygen generation. Such a trend implies structural reconfiguration within the coordination environment of the complex, which appears necessary to initiate the catalytic event. On the other hand, the characteristic absorption feature vanishes after 4 h as a result of the formation of radical species. The UV–Vis profile of the complex Cu(HL5)(ClO4)2 (Figure S46) undergoes a faster modification.
Figure S46: UV-Vis spectra of Cu(HL5)(ClO4)2 at time 0 (red) and after 7 h (light red). The colours variation represents an increment of 5 min from t=0 to t=15 min, of 15 min from t=15 to t= 45 min and 45 min from t= 45 to t=360 min.
Conditions: [Cu(HL5)(ClO4)2]= 200 uM, [H2O2]=10mM in BBS 50mM pH=7.8. Zoom: temporal trends compared to O2 (red) and Abs (light red) on the maximum absorption at 294 nm.
Figure S47: UV-Vis spectra of Cu2(L1)2(ClO4)2 at time 0 (blue) and after 24 hours (light blue). Every change of colors represents a temporal increase of 90 minutes. Conditions: [Cu2(L1)2(ClO4)2] = 200 µM, [H2O2] = 10 mM in BBS 50 mM, pH = 7.8. Zoom: temporal trends compared to O2 (blue) and Abs (light blue) on the maximum absorption at 288 nm.
Figure S48: UV-Vis spectra of Cu2(L5)2(ClO4)2 at time 0 (dark green) and after 24 hours (light green). Every change of colours represents a temporal increase of 90 minutes. Conditions: [Cu2(L5)2(ClO4)2] = 200 µM, [H2O2] = 10 mM in BBS 50 mM, pH = 7.8. […]

[5] = Peroxidase activity: morin oxidation with H2O2; type: biochemical; settings: after 16 h with H2O2; [Morin] = 0.16 mM, [Catalyst] = 1.6 μM, [H2O2] = 0.01 M, PBS 50 mM, pH 7.8
Protocol: Since initial antioxidant evaluations were conducted without incorporating oxidizable substrates, it is therefore essential to assess the behavior of the complexes in the presence of organic substrates. To this aim, we employed two distinct categories of model substrate: morin and o-phenylenediamine (OPD). We evaluated the spectral changes during morin oxidation, i.e., absorbance decreases for the substrate (Figure 7 and Figures S50–S53 in the Supporting Materials) and increase for the 2,3-diaminephenazine (DAP), the product of the oxidative degradation of the OPD (Figures S55–S58 in the Supporting Materials).
Figure 7 Residual absorbance of morin at the maximum absorption (390 nm) after reaction of the complexes with H2O2 for 16 h. [Morin] = 0.16 mM, [Catalyst] = 1.6 μM, [H2O2] = 0.01 M, PBS buffer (50 mM), pH 7.8.
Peroxidase activity was evaluated via UV-Vis spectroscopy by monitoring the time-dependent absorbance changes of oxidized substrates in the presence of H₂O₂ and copper complexes. Two substrates were used: morin and o-phenylenediamine (OPD).
For morin, the oxidative degradation (Figure S49) was evidenced by a decrease in absorbance at 390 nm. […]
The reaction kinetics were monitored over 18 hours with spectra collected every 20 minutes (Figures S50–S53). […]
Figure S50: Absorbance variation of the morine, with the complex Cu(HL1)(ClO 4)2. […]

Compound	ΔE [1]	│ia/ic│ [1]	E1/2 [1]	Epa [1]	Epc [1]	IC50 [2]	Log (kcat) [2]	Time (to maximum O2 production) [3]	O2 generated ([3]; triplicate, ±10% error)	time in which the π→π* absorbance feature fades / changes [4]	residual absorbance of morin (390 nm) [5]	Rmax ([3]; triplicate, ±10% error)
COc1cccc(CN(Cc2ccccn2)Cc2ccccn2)c1O.[Cu+2].[O-][Cl+3]([O-])([O-])[O-].[O-][Cl+3]([O-])([O-])[O-] [Cu(HL5)(ClO4)2]	−0.106 V	0.52	−0.149 V	−0.096 V	−0.202 V	1040 nM	6.41 ^h	1300 min	9.8 mmol/L	approximately 60 min	21%	–
COc1cccc(CN(Cc2ccccn2)Cc2ccccn2)c1[O-].COc1cccc(CN(Cc2ccccn2)Cc2ccccn2)c1[O-].[Cu+2].[Cu+2].[O-][Cl+3]([O-])([O-])[O-].[O-][Cl+3]([O-])([O-])[O-] [Cu2(L5)2(ClO4)2]	−0.081 V	0.90	−0.179 V	−0.138 V	−0.219 V	1280 nM	6.31 ^h	950 min	7.7 mmol/L	≤ 90 min	40%	0.36
